Laboratory results reported in PubChem BioAssay AID1645867 (Buhrlage Lab, Dana-Farber Cancer Institute and Novartis …, 2021).
Active and inactive are the calls of the source. The rule behind the calls is not given here.

Target: Ubiquitin carboxyl-terminal hydrolase isozyme L1 (Homo sapiens) (UniProt P09936)
Assay: UCH-L1 deubiquitylase inhibitors, biochemical concentration-response, hit retest (AID 1645867)
Conditions: recombinant UCHL1 deubiquitinase activity assay

Ubiquitin carboxyl-terminal hydrolase isozyme L1 (Homo sapiens), sequence (P09936 whole entry, looked up): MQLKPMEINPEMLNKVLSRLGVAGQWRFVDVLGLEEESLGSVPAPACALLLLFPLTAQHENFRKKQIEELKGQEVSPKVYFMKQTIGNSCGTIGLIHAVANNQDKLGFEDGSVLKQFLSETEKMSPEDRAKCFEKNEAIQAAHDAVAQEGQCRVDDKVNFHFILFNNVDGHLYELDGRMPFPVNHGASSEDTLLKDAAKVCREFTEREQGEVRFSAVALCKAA

O=C(COc1ccc(N2CC(C(=O)NCc3ccc4c(c3)OCO4)CC2=O)cc1)Nc1ccc(F)cc1 (stereo unspecified)
IC50: > 25 µM (inactive)

O=C(COc1ccccc1)Nc1ccc(-c2nc3cnccc3o2)c(O)c1
IC50: > 25 µM (inactive)

Cc1cc(C)c(NC(=O)Cn2c(=O)n(CCC(=O)NCc3ccc4c(c3)OCO4)c(=O)c3sccc32)c(C)c1
IC50: > 25 µM (inactive)

C=C(CCC(C)(C)/C=C/CC/C(C)=C/COC(COP(=O)(O)O[C@@H]1OC(C(N)=O)[C@@](C)(O)[C@H](OC(N)=O)C1O[C@@H]1OC(CO[C@@H]2OC(CO)[C@H](O)[C@H](O)C2O)[C@H](O[C@@H]2OC(CO)[C@H](O[C@@H]3OC(C(=O)NC4=C(O)CCC4=O)[C@H](O)[C@H](O)C3O)[C@H](O)C2NC(C)=O)C(O)[C@@H]1NC(C)=O)C(=O)O)CC1C(=C)CCCC1(C)C (stereo partly specified)
IC50: > 25 µM (inactive)

O=c1c(O)c(-c2ccc(O)c(O)c2)oc2cc(O)cc(O)c12
IC50: 2.32 µM

Cc1ccc(NCc2cc3c(-c4cccc(F)c4)nn(-c4ccccc4)c3[nH]c2=O)cc1C
IC50: 21.6 µM

Cc1cc(C(=O)NC2(O)C(=O)c3ccccc3C2=O)n(C)n1
IC50: 20.6 µM

O=c1c(-c2nc(-c3ccncc3)no2)cccn1Cc1c(F)cccc1Cl
IC50: > 25 µM (inactive)

CCOc1ccc(-n2ccnc(SCC(=O)Nc3ccccc3Cl)c2=O)cc1
IC50: > 25 µM (inactive)

COc1ccc(CCn2c(-c3ccccc3)nc3c(c(=O)c4ccccc4n3C)c2=O)cc1OC
IC50: > 25 µM (inactive)

COc1ccc2c(CNCCC3=CCCCC3)c(C(=O)O)n(Cc3ccc(F)cc3)c2c1
IC50: > 25 µM (inactive)

CN(C)[C@@H]1C(=O)C(C(N)=O)=C(O)[C@@]2(O)C(=O)C3=C(O)c4c(O)cccc4[C@@](C)(O)[C@H]3C[C@@H]12
IC50: > 25 µM (inactive)

COc1ccc(NC(=O)C2C3C=CC4(O3)C2C(=O)N(CCc2ccccc2)C4C(=O)NC2CCCCC2)cc1 (stereo unspecified)
IC50: > 25 µM (inactive)

O=C(Nc1cnc(-c2cccc(Cl)c2)nc1)C1CCC1
IC50: > 25 µM (inactive)

Brc1ccc(Sc2cnns2)cc1
IC50: > 25 µM (inactive)

Cc1ccccc1NC(=O)Cn1cc(S(=O)(=O)Cc2ccccc2)c2ccccc21
IC50: > 25 µM (inactive)

COc1cccc(C(CC(=O)Nc2ccc3c(c2)OCCO3)n2cccc2)c1 (stereo unspecified)
IC50: > 25 µM (inactive)

CCC(C(=O)C(C)C(O)C(C)CCc1ccc(C)c(O)c1C(=O)O)C1OC(CC)(C2CCC(O)(CC)C(C)O2)CC1C (stereo unspecified)
IC50: > 25 µM (inactive)

O=[N+]([O-])c1ccc(C(O)CN2CCN(Cc3ccccc3)CC2)cc1 (stereo unspecified)
IC50: > 25 µM (inactive)

Cc1ccc(NC(=O)Cc2nnc3cc(-c4nc(C)no4)ccn23)cc1
IC50: > 25 µM (inactive)

Cc1nn(-c2ccc(Cl)cc2)c2[nH]c(=O)c(CNc3ccc4c(c3)OCCO4)cc12
IC50: > 25 µM (inactive)

N#Cc1ccc(COC(=O)C(O)(c2ccccc2)c2ccccc2)cc1
IC50: > 25 µM (inactive)

CCOc1ccc(C(c2c(NC(=O)c3ccccc3)sc(C)c2C)N2CCN(CCO)CC2)cc1 (stereo unspecified)
IC50: > 25 µM (inactive)

Cc1ccc2c(c1)c(=O)c(C(=O)c1ccccc1)cn2CC(=O)Nc1ccccc1
IC50: > 25 µM (inactive)

Cn1c(=O)c2ncnnc2n(C)c1=O
IC50: 16.3 µM

Cc1ccccc1NC(=O)Cc1csc2nc(-c3ccc(F)cc3)cn12
IC50: > 25 µM (inactive)

O=C(NCC(O)c1ccc([N+](=O)[O-])cc1)c1cccc(S(=O)(=O)N2CCOCC2)c1 (stereo unspecified)
IC50: > 25 µM (inactive)

CC(CCc1ccccc1)NCc1c(C(=O)O)n(Cc2ccccc2)c2ccccc12 (stereo unspecified)
IC50: > 25 µM (inactive)

CO/C1=C\C(C)=C\[C@@H](C)[C@@H](O)[C@H](C)C/C(C)=C/C=C/[C@H](OC)[C@@H]([C@@H](C)[C@@H](O)[C@H](C)[C@@]2(O)C[C@@H](OC(=O)/C=C/C(=O)NC3=C(O)CCC3=O)[C@H](C)[C@@H](C(C)C)O2)OC1=O
IC50: > 25 µM (inactive)

Cc1ccc(C2CC(=O)c3cnc(NCC4CCCO4)nc3C2)cc1 (stereo unspecified)
IC50: > 25 µM (inactive)

O=C(Nc1ccc(-c2cn3ccsc3n2)cc1)c1ccc(Cl)c([N+](=O)[O-])c1
IC50: > 25 µM (inactive)
